Source: patent US10420798B2, “Method for treating lung injury and/or diseases related to lung injury” (TAIWAN MITOCHONDRION APPLIED TECHNOLOGY CO., LTD, priority 2014, dated 2019)

Key:
[1] = test system: human umbilical vein endothelial cells; assay: intracellular protein oxidation (Oxyblot) under menadione oxidative stress; format: cell-based; conditions: after 0.5 hours and 6 hours of treatment; mitochondria after menadione vs menadione only; menadione vs untreated
From the text: (§1) The term “protein oxidation detection kit” disclosed in the present invention refers to methods for detecting protein oxidation in cells. For example, the Oxyblot Oxidized Protein Detection Kit S7150 (Chemicon) used in the examples of the present invention detects oxidized proteins by labeling oxidized proteins in a sample with 2,4-dinitrophenylhydrazine (DNPH), separating proteins in the sample with 12% SDS polyacrylamide gel electrophoresis, transferring the separated proteins onto a transfer membrane, such as a nitrocellulose membrane, immersing the transfer membrane in buffer containing anti-DNP primary antibody (1:150) for about 2 hours, then immersing the transfer membrane in buffer containing secondary antibody (1:300) at room temperature for about an hour, and then observing expression of oxidized proteins in the sample.
Human umbilical vein endothelial cells were divided into three groups. The human umbilical vein endothelial cells of the first group remained untreated. […] Protein oxidation in each group was detected after 0.5 hours and 6 hours of treatment with a commercially available protein oxidation assay kit (Oxyblot Oxidized Protein Detection Kit S7150, Chemicon), and oxidative stress in cells of each group was further analyzed with a software (Labwork software, UVP).

[2] = test system: rat model of acute respiratory distress syndrome; assay: arterial oxygen saturation in rat model of acute respiratory distress syndrome; format: in vivo; conditions: ARDS rats; melatonin 50 mg/kg i.p. at 6th and 24th hour; mitochondria 1500 μg per rat i.v. at 6th hour
Protocol: (§2) A total of forty (40) specific pathogen free (SPF) adult male SD rats, each weighing 350-400 g (Charles River Technology, BioLASCO Biotechnology Co., Ltd., Taiwan) were used in the examples. The SD rats were randomly divided into 5 groups: the first group was the normal control group; the second group was the rat model of acute respiratory distress syndrome; the third group was the rat model of acute respiratory distress syndrome intraperitoneally injected with melatonin, with each dose of 50 mg per kilogram, at the 6th and the 24th hour after breathing pure oxygen; the fourth group was the rat model of acute respiratory distress syndrome intravenously injected mitochondria, with a dose of 1500 μg per rat, at the 6th hour after breathing pure oxygen; the fifth group was the rat model of acute respiratory distress syndrome administered melatonin and mitochondria in the same manners, frequency, and doses as those of the third group and the fourth group, respectively.
Rats in each group in Example 5 were anesthetized. Arterial blood was taken from the carotid arteries of rats in each group, and the oxygen saturation of the blood samples was analyzed.
The rat model of acute respiratory distress syndrome was divided into two groups. One group was given 750 μg of mitochondria per rat, and the other group was given 1500 μg of mitochondria per rat. […]

[3] = test system: rat model of acute respiratory distress syndrome; assay: right ventricular systolic pressure in rat model of acute respiratory distress syndrome; format: in vivo; conditions: ARDS rats; melatonin 50 mg/kg i.p. at 6th and 24th hour; mitochondria 1500 μg per rat i.v. at 6th hour
Protocol: (§3) A total of forty (40) specific pathogen free (SPF) adult male SD rats, each weighing 350-400 g (Charles River Technology, BioLASCO Biotechnology Co., Ltd., Taiwan) were used in the examples. […]
Then, rats in each group were provided air with positive pressure ventilation (180 ml per minute) using small animal ventilators (SAR-830/A, CWE, Inc., USA) and intubation. […] Signals of right ventricular systolic pressure were measured with a pressure transducer (UFI, model 1050, CA, USA) and transmitted to bridge amplifiers (ML866 PowerLab 4/30 Data Acquisition Systems. ADlnstruments Pty Ltd., Castle Hill, NSW, Australia) to obtain the right ventricular systolic pressure of rats in each group as a reference for pulmonary hypertension. In addition, femoral artery systolic blood pressure of rats in each group was measured. The right ventricular systolic pressure and the femoral artery systolic blood pressure were analyzed by software (Labchart, ADlnstrument). […]

[4] = test system: rat model of acute respiratory distress syndrome; assay: albumin in BAL fluid (SDS-PAGE, Coomassie Blue); format: in vivo; conditions: ARDS rats; doses of Example 5
Protocol: as §2
(§4) BAL fluid was obtained from rats in each group by bronchoalveolar lavage (BAL). SDS-PAGE and Coomassie Blue staining were used to detect the concentration of albumin in the BAL fluid of each group, and the results are shown in FIG. 11. Furthermore, the number of MPO+, CD40+, and CD11b/c+ cells in the BAL fluid of each group was calculated by flow cytometry.

[5] = test system: rat model of acute respiratory distress syndrome; assay: MPO+, CD40+, CD11b/c+ cells in BAL fluid by flow cytometry; format: in vivo; conditions: ARDS rats; doses of Example 5
Protocol: as §2, §4

[6] = test system: rat model of acute respiratory distress syndrome; assay: lung sections: immunofluorescence and transmission electron microscopy of mitochondria; format: in vivo; conditions: compared with second group (ARDS)
Protocol: as §2
The left lungs of rats in each group were inflated with constant airway pressure (15-20 mmHg) and embedded with OCT (Tissue-Tek) for immunohistochemical staining. The right lungs of rats in each group were fixed with 4% paraformaldehyde and 0.1% glutaraldehyde phosphate buffer solution, then embedded in paraffin, and stained with hematoxylin and eosin. […]

[7] = test system: rat model of acute respiratory distress syndrome; assay: lung histology (hematoxylin and eosin): alveolar sacs and crowded area; format: in vivo; conditions: per high power field 100×; ARDS rats; doses of Example 5
From the text: as §3
The integral of the crowded area in the lung tissue of rats in each group was further calculated by the following criteria: 0 represents no overlap; 1 represents less than 15% of crowded area in each of the high magnification fields; 2 represents 15-25% of crowded area in each of the high magnification fields; 3 represents 25-50% of crowded area in each of the high magnification fields; 4 represents 50-75% of crowded area in each of the high magnification fields; 5 represents 75-100% of crowded area in each of the high magnification fields. […]

[8] = test system: rat model of acute respiratory distress syndrome; assay: immunostaining of lung sections for F4/80, γ-H2AX, Cx43, heme oxygenase-1; format: in vivo; conditions: positive cells per HPF 400×; ARDS rats
Protocol: as §2
The paraffin sections of the lung tissue of each group were rehydrated with 3% hydrogen peroxide for 30 minutes, followed by the addition of a high-performance Immuno-Block reagent (BioSB) at room temperature for 30 minutes. The sections were then treated with the specific primary antibody of the following proteins, respectively: F4/80 (1:100, Abcam), γ-H2AX (1:500, Abcam), heme oxygenase-1 (HO-1; 1:2000, Abcam), and Cx43. Immunohistochemical staining was performed on the sections of the lung tissue of each group to observe the expression of F4/80, γ-H2AX, heme oxygenase-1, and Cx43 in cells. In addition, the expression of the proteins mentioned above in the lung tissue sections of each group was quantified, and the results are shown in FIG. 20 to FIG. 23. The red fluorescence represents the exogenous mitochondria labeled by mito-tracker, and the green fluorescent represents the mitochondria within the lungs. […]

[9] = test system: rat model of acute respiratory distress syndrome; assay: western blotting / Oxyblot of lung parenchyma protein extracts; format: in vivo
From the text: as §1, §2
The protein extracts of the left lungs of rats in each group were prepared. The same amount (10 to 30 μg) of protein extracts of rats in each group was detected by western blotting and Oxyblot Oxidized Protein Detection Kit S7150, Chemicon, respectively. The results were observed by enhanced chemiluminescence (ECL, Amersham Biosciences), and the performance of each protein was quantified by software (Labwork software, UVP).
Specifically, the procedure and conditions of western blotting were as follows: Proteins were separated by SDS gel electrophoresis with a gradient of 8-10% polyacrylamide solution. The blocking agent used was a T-TBS solution containing 5% skimmed milk powder and 0.05% Tween. Primary antibodies were against the following proteins respectively: NOX-1 (1:1500, Sigma), NOX-2 (1:750, Sigma), NOX-4 (1:1000, Abcam), or interacted with polyclonal antibodies that were against the following proteins: tumor necrosis factor α (1:1000, Cell Signaling), nuclear factor κB (1:250, Abcam), matrix metalloproteinase 9 (1:3000, Abcam), transforming growth factor β (1:1000, Abcam), Smad3 (1:500, Cell Signaling), bone morphogenetic protein-2 (1:100, Abcam), Smad 1/5 (1:500, Cell Signaling), GR (1:1000, Abcam), GPx (1:1000, Abcam), Cytochrome C (1:2000, BD), NQO 1 (NAD(P)H: quinone oxidoreductase 1; 1:1000, Abcam), Heme oxygenase-1 (1:250, Abcam), caspases 3 (1:1000, Cell Signaling), and PARP (poly (ADP-ribose) polymerase; 1:1000, Cell Signaling). Secondary antibodies conjugated to HRP enzymatic fluorescence are goat antibody against mouse IgG, goat antibody against rat IgG, or goat antibody against rabbit IgG.

CC1=CC(=O)c2ccccc2C1=O [menadione]
protein oxidation in cells [1]: increased significantly

COc1ccc2[nH]cc(CCNC(C)=O)c2c1 [melatonin]
oxygen saturation (group comparison) [2]: significantly higher than that of the fourth group | right ventricular systolic pressure (group comparison) [3]: significantly reduced | albumin concentration in BAL fluid [4]: significantly lower than those in the second group | number of inflammatory cells (MPO+, CD40+, CD11b/c+) in BAL fluid [5]: significantly lower than those in the second group | mitochondrial morphology in lung tissue (size, cristae; TEM) [6]: smaller, and there are cristae in the mitochondrial inner membranes | number of alveolar sacs [7]: significantly higher than that in the second group | expression of F4/80 in lung sections [8]: significantly lower than the fourth group | expression of heme oxygenase-1 in lung sections [8]: significantly higher then the second group | expression of γ-H2AX in lung sections [8]: significantly lower than the fourth group | oxidative stress (oxidized proteins) ([9]; Oxyblot): significantly lower than that of the second and fourth groups | expression level of GPx ([9]; western blot): significantly higher than those of the second and fourth groups | expression level of GR ([9]; western blot): significantly higher than those of the second and fourth groups | expression level of Heme oxygenase-1 ([9]; western blot): significantly higher than those of the second and fourth groups | expression level of NOX-1 ([9]; western blot): significantly lower than those of the second and fourth groups | expression level of NOX-2 ([9]; western blot): significantly lower than those of the second and fourth groups | expression level of NOX-4 ([9]; western blot): significantly lower than those of the second and fourth groups | expression level of NQO 1 ([9]; western blot): significantly higher than those of the second and fourth groups | expression level of Smad3 ([9]; western blot): significantly lower than those of the second and fourth groups | expression level of activated PARP ([9]; western blot): significantly lower than those of the second and fourth groups | expression level of activated caspase-3 ([9]; western blot): significantly lower than those of the second and fourth groups | expression level of cytochrome c (cytosol) ([9]; western blot): significantly lower than those of the second and fourth groups | expression level of matrix metalloproteinase 9 ([9]; western blot): significantly lower than those of the second and fourth groups | expression level of nuclear factor κB ([9]; western blot): significantly lower than those of the second and fourth groups | expression level of transforming growth factor β ([9]; western blot): significantly lower than those of the second and fourth groups | expression level of tumor necrosis factor α ([9]; western blot): significantly lower than those of the second and fourth groups
